Source: patent US6083941A, “Inhibition of NMDA receptor activity by pregnenolone sulfate derivatives” (Trustees of Boston University, priority 1998, dated 2000)

Legend:
[1] = system: focal cerebral ischemia (MCA occlusion) in rats; test: Middle cerebral artery occlusion cerebral ischemia test; type: in vivo; conditions: for cortical infarct volume: treatment delayed until 30 min. after initiation of ischemia
Description: Male Wistar rats (200-250 g) were used. Anesthesia was induced with 3% halothane in 70% nitrogen balanced with oxygen. Rats were intubated and artificially ventilated with 2% halothane in a mixture of 30% oxygen and 70% nitrogen. Body temperature was maintained at 37.5° C. during surgery by means of a warming pad with a rectal probe connected to a feedback control unit. Both common carotid arteries (CCA) were isolated, and a loose silk ligature was placed around each artery. A vertical skin incision was made between the left orbit and the auditory canal. Under constant saline irrigation the posterior part of the zygoma was removed and a small opening (2.0/2.5 mm) drilled dorso-rostrally to the foramen ovale. The dura was opened with a microsurgical hook and the brain gently retracted with a small spatula to expose the bifurcation of the internal carotid artery and middle cerebral artery. After permanent ligation of the ipsilateral CCA, the middle cerebral artery (MCA) was coagulated from its origin to the olfactory tract. The contralateral CCA was occluded for a period of 2 hours. A bolus intravenous injection (1 ml) of test compound dissolved in 5% DMSO, 10% 2-hydroxy propyl-β-cyclodextrin in 100 mM sodium phosphate buffer, pH 7.4, was given either immediately after MCA occlusion or 30 minutes after MCA occlusion. An intravenous infusion of the test drug in the same vehicle was initiated immediately after the bolus injection. Twenty-two hours after MCA occlusion rats were euthanized, and the brains were sectioned into 2 mm slices and stained with tetrazoliumred (2,3,5-triphenyl tetrazolium chloride). Areas of brain damage were assessed using an image analyzer with the NIH Image program, and the volumes of cortical and subcortical infarction were estimated by integration of areas in serial.
Pregnanolone hemisuccinate produced significant neuroprotection in the MCAO cerebral ischemia model. […] Focal cerebral ischemia was induced in the left hemisphere of male rats by proximal coagulation of the middle cerebral artery. In addition, the ipsilateral common carotid artery was permanently occluded and the contralateral common carotid artery was occluded for 2 h. Five minutes after initiation of ischemia, rats were injected with an i.v. loading dose of 6.9 mg/kg 5β3αHS, followed by i.v. infusion of 5β3αHS at 6.9 mg/kg/h. […] Control rats were treated with vehicle. Infusion of 5β3αHS was continued for an additional 20 h, at which time the rats were sacrificed, and their brains were sliced and stained with the vital stain 2,3,5 triphenyl tetrazolium Cl.

[2] = system: formalin pain in the mouse; test: Formalin paw lick analgesic test; type: in vivo; conditions: mice, i.p., 15 mg/kg
Description: Male CD-1 mice (Charles River laboratories, Wilmington, Mass.) weighing 20-25 g were used for the formalin test. Mice were injected intraperitoneally with the test compound dissolved in DMSO or with vehicle. Five minutes later 20 μl of 1% formalin was injected into the hind paw of each mouse. The time spent licking the injected paw was monitored for 25 minutes. The early phase of response was between 0-5 minutes and the late phase response was defined as the response between 5-25 minutes.

[3] = i.v. 6.9 mg/kg loading dose then 6.9 mg/kg/h, started 5 min. after onset of ischemia, versus vehicle

## CC(=O)[C@H]1CC[C@H]2[C@@H]3CC[C@@H]4C[C@H](OC(=O)CCC(=O)O)CC[C@]4(C)[C@H]3CC[C@]12C [5β3αHS, 3α-hydroxy-5β-pregnan-20-one hemisuccinate]
[1]; i.v. 6.9 mg/kg loading dose then 6.9 mg/kg/h
  sedation: Little or no sedation
[1]; [3]
  reduction in cortical infarct volume: 47±10%
  reduction in subcortical infarct volume: 26±6%
[1]
  cortical infarct volume: significantly reduced
[1]; listed as Pregnanolone hemisuccinate
  cortical infarct volume: significantly decreased
[1]; treatment immediately after cerebral ischemia
  infarction volumes of the cortical and subcortical brain regions: significantly decreased
[2]; 0-5 minutes
  early phase response, formalin paw lick: no effect on the early response
[2]; 5-25 minutes
  late phase response, formalin paw lick: effective in blocking the late phase response
